Source: US20080318954A1, “Compounds” (Cyclacel Limited, priority 2004, published 2008)

Experiments:
CDK4/cyclin D1 = target: T1, CDK4/cyclin D1 (Homo sapiens, UniProt P11802); test: CDK/cyclin kinase assay, CDK4/cyclin D1; assay type: biochemical; conditions: for inhibition at 1 µM: primary screening at 1 μM; for IC50: read-out: Kinase inhibition IC50 CDK4/D1
T1 construct: His6 (N); made in house; host or cells: CDK4: Sf9 insect cells (baculovirus); Cyclin D1: E. coli, Sf9
Procedure: (§1) CDK4/cyclin D1, CDK1/cyclin B, CDK2/cyclin E, CDK2/cyclin A, CDK9/cyclin T1 and CDK7/cyclin H, all with a His6 tag on the N-terminus, were expressed in Sf9 insect cells using an appropriate baculovirus construct. Sf9 culture (1.6×10^6 cells/mL) was infected (MOI of 3) for two days. The cells were harvested by low speed centrifugation and the protein was purified from the insect cell pellet by metal affinity chromatography. In short: the insect cell pellet was lysed in Buffer A (10 mM Tris-HCl pH 8.0, 150 mM NaCl, 0.02% NP-40, 5 mM β-mercaptoethanol, 20 mM NaF, 1 mM Na3VO4, and Sigma Protease Inhibitor Cocktail) by sonication. The soluble fraction was cleared by centrifugation and loaded onto Ni-NTA-Agarose (Qiagen). Non-bound protein was washed off with 300 mM NaCl, 5-15 mM imidazole in buffer A and the bound protein was eluted with buffer A supplemented with 250 mM imidazole. The purified proteins were extensively dialyzed against storage buffer (20 mM HEPES pH 7.4, 50 mM NaCl, 2 mM DTT, 1 mM EDTA, 1 mM EGTA, 0.02% NP-40, 10% v/v glycerol) and stored at −70° C.
(§2) Compounds were investigated for their CDK2/cyclin E, CDK2/cyclin A, CDK1/cyclin B, and CDK4/cyclin D1 inhibitory activity. His6-tagged recombinant human cyclin-dependent kinases CDK1/cyclin B1, CDK2/cyclin E, CDK2/cyclin A, and CDK4 were expressed in sf9 insect cells using a baculovirus expression system. Recombinant cyclin D1 was expressed in E. coli. Proteins were purified by metal chelate affinity chromatography to greater than 90% homogeneity. Kinase assays were performed in 96-well plates using recombinant CDK/cyclins. Assays were performed in assay buffer (25 mM β-glycerophosphate, 20 mM MOPS, 5 mM EGTA, 1 mM DTT, 1 mM […], pH 7.4), into which were added 2-4 μg of active enzyme with appropriate substrates (purified histone H1 for CDK1 and CDK2, recombinant GST-retinoblastoma protein (residues 773-928) for CDK4). The reaction was initiated by addition of Mg/ATP mix (15 mM MgCl2+100 μM ATP with 30-50 kBq per well of [γ-^32P]-ATP) and mixtures incubated for 10-45 min, as required, at 30° C. Reactions were stopped on ice, followed by filtration through p81 or GF/C filterplates (for CDK4) (Whatman Polyfiltronics, Kent, UK). After washing 3 times with 75 mM aq orthophosphoric acid, plates were dried, scintillant added and incorporated radioactivity measured in a scintillation counter (TopCount, Packard Instruments, Pangbourne, Berks, UK). Compounds for kinase assays were made up as 10 mM stocks in DMSO and diluted into 10% DMSO in assay buffer. Data was analysed using curve-fitting software (GraphPad Prism version 3.00 for Windows, GraphPad Software, San Diego Calif. USA) to determine IC50 values (concentration of test compound which inhibits kinase activity by 50%).

GSK-3β = target: T2, GSK-3β (Oryctolagus cuniculus, UniProt G1T8E2); test: GSK-3β kinase assay; assay type: biochemical, rabbit; conditions: read-out: Kinase inhibition IC50 GSK3β
T2 construct: isolated from a strain of E. coli that carries a clone expressing GSK-3β derived from a rabbit skeletal muscle cDNA library [34]
Procedure: GSK-3 was obtained from New England Biolabs (UK) Ltd., Hitchin, Herts. The recombinant enzyme was isolated from a strain of E. coli that carries a clone expressing GSK-3β derived from a rabbit skeletal muscle cDNA library. Inhibition of GSK-3 function was assessed by measurement of phosphorylation of CREB phosphopeptide KRREILSRRPpSYR in the presence of test compounds. Using a 96-well assay format, GSK3 (7.5 U) was incubated for 30 min at 30° C. in a total volume of 25 μL in 20 mM MOPS pH 7.2, 25 mM β-glycerophosphate, 5 mM EGTA, 1 mM DTT, 1 mM […], 40 μM CREB peptide, 15 mM MgCl2 and 100 μM ATP (containing 0.25 μCi [γ-^32P]-ATP) in the presence of varying concentrations of test compound. The samples were transferred to 96-well p81 filter plates (Whatman Polyfiltronics, Kent, UK), and the plates were washed 4 times with 200 μL/well of 75 mM aq orthophosphoric acid. Scintillation liquid (50 μL) was added to each well, and incorporated radioactivity for each sample was determined using a scintillation counter (TopCount, Packard Instruments, Pangbourne, Berks, UK).

CDK2/cyclin A = target: T3, CDK2/cyclin A (Homo sapiens, UniProt P24941); test: CDK/cyclin kinase assay, CDK2/cyclin A; assay type: biochemical; conditions: for inhibition at 1 µM: primary screening at 1 μM; for IC50: read-out: Kinase inhibition IC50 CDK2/A
T3 construct: His6 (N); made in house; host or cells: Sf9 insect cells (baculovirus)
Procedure: as §1, §2

CDK1/cyclin B1 = target: T4, CDK1/cyclin B1 (Homo sapiens, UniProt P06493); test: CDK/cyclin kinase assay, CDK1/cyclin B1; assay type: biochemical; conditions: for inhibition at 1 µM: primary screening at 1 μM; for IC50: read-out: Kinase inhibition IC50 CDK1/B1
T4 construct: His6 (N); made in house; host or cells: Sf9 insect cells (baculovirus)
Procedure: as §1, §2

CDK2/cyclin E = target: T5, CDK2/cyclin E (Homo sapiens, UniProt P24941); test: CDK/cyclin kinase assay, CDK2/cyclin E; assay type: biochemical; conditions: for inhibition at 1 µM: primary screening at 1 μM; for IC50: read-out: Kinase inhibition IC50 CDK2/E
T5 construct: His6 (N); made in house; host or cells: Sf9 insect cells (baculovirus)
Procedure: as §1, §2

[1] = test system: glycogen synthase activity in HEK293 cells; test: Glycogen synthase (GS) assay in HEK293 cells; assay type: cell-based, human; conditions: Homo sapiens; In HEK293 cells at [compound] = 5 μM (Table 2)
Procedure: Cells on 10 cm dishes (Human Embryonic Kidney (HEK) 293 cells, L6 rat myocytes, or 3T3 mouse adipocytes) were treated with different concentrations of GSK3-inhibitors or DMSO vehicle for 90 min. Incubation medium was removed and cells were washed with ice-cold phosphate-buffered saline (PBS) prior to lysis on ice in 50 mM HEPES, pH 7.5, 10 mM EDTA, 100 mM NaF, 5 mM DTT, protease inhibitor cocktail (Sigma). After a freeze/thaw cycle the samples are sonicated for 10 sec and centrifuged at 15,000 g for 10 min at 4° C. Lysate supernatants were snap-frozen on liquid nitrogen and stored at −80° C. Lysates were assayed for glycogen synthase activity in buffer (50 mM Tris-HCl, pH 7.8, 20 mM EDTA, 25 mM NaF, 5 mM DTT, 1% glycogen, 0.3 mM UDP-glucose and 0.06 μCi of [^14C]-UDP-glucose in the presence of 0.1 or 10 mM glucose-6-phosphate. The reaction was carried out for 30 min at 30° C. 70 μL of the reaction mixture (total volume 90 μL) were transferred to a GFC 96-well filter plate (bottom sealed with foil), containing 140 μL 96% ethanol. The GFC plate was incubated for 1 h on ice and than washed with 66% ethanol. To each well 100 μL scintillant liquid was added and the radioactivity of the samples was measured using a scintillation counter (Topcount, HP). Data are expressed as -fold increase in glycogen synthase activity ratios over those of control samples.

T2 sequence (G1T8E2 1-432): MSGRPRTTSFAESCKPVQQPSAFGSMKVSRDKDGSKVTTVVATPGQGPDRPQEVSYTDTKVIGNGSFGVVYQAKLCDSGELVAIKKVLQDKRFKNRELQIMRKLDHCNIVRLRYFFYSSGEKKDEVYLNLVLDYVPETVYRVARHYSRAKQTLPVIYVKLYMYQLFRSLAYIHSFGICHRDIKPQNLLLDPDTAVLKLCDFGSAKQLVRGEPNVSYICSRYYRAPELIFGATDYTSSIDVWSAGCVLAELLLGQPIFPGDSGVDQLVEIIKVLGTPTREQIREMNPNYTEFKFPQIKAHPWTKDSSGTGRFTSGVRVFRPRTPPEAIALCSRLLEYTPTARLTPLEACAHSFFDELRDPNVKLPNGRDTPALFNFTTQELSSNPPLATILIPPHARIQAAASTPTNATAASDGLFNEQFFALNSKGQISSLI
T1 sequence (P11802 whole entry): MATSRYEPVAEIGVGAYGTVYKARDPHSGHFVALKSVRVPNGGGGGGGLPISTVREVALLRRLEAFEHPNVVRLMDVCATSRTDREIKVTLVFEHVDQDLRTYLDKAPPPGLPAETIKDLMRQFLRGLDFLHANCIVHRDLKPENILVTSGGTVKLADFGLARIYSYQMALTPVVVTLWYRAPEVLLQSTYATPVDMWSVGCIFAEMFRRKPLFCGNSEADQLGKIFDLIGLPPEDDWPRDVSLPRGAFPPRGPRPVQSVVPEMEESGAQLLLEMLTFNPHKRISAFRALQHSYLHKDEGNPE
T1 sequence (P24385 whole entry partner): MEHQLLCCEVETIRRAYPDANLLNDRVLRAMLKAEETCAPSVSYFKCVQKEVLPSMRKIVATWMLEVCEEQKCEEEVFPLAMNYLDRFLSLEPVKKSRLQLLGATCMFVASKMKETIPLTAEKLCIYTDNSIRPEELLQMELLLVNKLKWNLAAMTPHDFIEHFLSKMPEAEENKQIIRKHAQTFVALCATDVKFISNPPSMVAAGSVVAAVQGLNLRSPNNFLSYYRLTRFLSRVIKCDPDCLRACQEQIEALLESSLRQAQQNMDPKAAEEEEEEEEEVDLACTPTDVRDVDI
T4 sequence (P06493 whole entry): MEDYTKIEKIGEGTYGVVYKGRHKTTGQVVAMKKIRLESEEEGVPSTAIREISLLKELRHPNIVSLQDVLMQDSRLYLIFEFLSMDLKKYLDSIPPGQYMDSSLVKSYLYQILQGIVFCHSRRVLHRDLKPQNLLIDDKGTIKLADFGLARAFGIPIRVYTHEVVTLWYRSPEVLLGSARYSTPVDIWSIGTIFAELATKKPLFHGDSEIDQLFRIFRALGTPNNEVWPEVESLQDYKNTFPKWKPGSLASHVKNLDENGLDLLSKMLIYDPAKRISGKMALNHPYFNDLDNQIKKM
T4 sequence (P14635 whole entry partner): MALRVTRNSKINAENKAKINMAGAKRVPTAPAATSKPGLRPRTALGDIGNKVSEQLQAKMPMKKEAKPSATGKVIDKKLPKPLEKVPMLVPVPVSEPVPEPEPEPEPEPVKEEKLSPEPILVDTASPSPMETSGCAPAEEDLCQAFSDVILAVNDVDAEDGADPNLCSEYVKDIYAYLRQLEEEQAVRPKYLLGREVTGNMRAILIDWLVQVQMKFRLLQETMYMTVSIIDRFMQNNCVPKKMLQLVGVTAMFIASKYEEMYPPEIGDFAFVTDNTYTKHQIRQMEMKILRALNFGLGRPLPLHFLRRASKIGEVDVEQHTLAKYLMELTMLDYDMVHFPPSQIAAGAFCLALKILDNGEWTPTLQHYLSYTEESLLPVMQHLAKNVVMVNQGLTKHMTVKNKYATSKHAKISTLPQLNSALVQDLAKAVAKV

inhibition at 1 µM (CDK4/cyclin D1) [%] | IC50 (GSK-3β) [nM] | inhibition at 1 µM (CDK2/cyclin A) [%] | inhibition at 1 µM (CDK1/cyclin B1) [%] | inhibition at 1 µM (CDK2/cyclin E) [%] | IC50 (CDK4/cyclin D1) [nM] | IC50 (CDK2/cyclin A) [nM] | IC50 (CDK1/cyclin B1) [nM] | IC50 (CDK2/cyclin E) [nM] | SMILES | fold induction at 5 µM [1]
< 50 | 12200 | < 50 | < 50 | < 50 | – | – | – | – | Cc1nc(-c2ccnc(Nc3cccc(C(F)(F)F)c3)n2)sc1C [Compound X, [4-(4,5-Dimethyl-thiazol-2-yl)-pyrimidin-2-yl]-(3-trifluoromethyl-phenyl)-amine] | –
< 50 | 15600 | < 50 | < 50 | < 50 | – | – | – | – | Cc1nc(-c2ccnc(Nc3ccc(Cl)c(C(F)(F)F)c3)n2)sc1C [Compound XI, (4-Chloro-3-trifluoromethyl-phenyl)-[4-(4,5-dimethyl-thiazol-2-yl)-pyrimidin-2-yl]-amine] | –
< 50 | 1530 | < 50 | < 50 | < 50 | – | – | – | – | Cc1nc(-c2ccnc(Nc3cccc(O)c3)n2)sc1C [IX, 3-[4-(4,5-Dimethyl-thiazol-2-yl)-pyrimidin-2-ylamino]-phenol] | –
– | 135 | – | – | – | > 10000 | > 10000 | > 10000 | > 1000 | CCOC(=O)c1sc(-c2ccnc(Nc3ccc(Cl)cc3)n2)nc1O [VII, 2-[2-(4-Chloro-phenylamino)-pyrimidin-4-yl]-4-hydroxy-thiazole-5-carboxylic acid ethyl ester] | 2.3
< 50 | 3470 | < 50 | < 50 | < 50 | – | – | – | – | Cc1nc(-c2ccnc(Nc3cccc(N)c3)n2)sc1C [VIII, N-[4-(4,5-Dimethyl-thiazol-2-yl)-pyrimidin-2-yl]-benzene-1,3-diamine] | –
– | 910 | – | – | – | > 100000 | > 100000 | > 100000 | > 50000 | COc1ccc(Nc2nccc(-c3nccs3)n2)cn1 [XIII, (6-Methoxy-pyridin-3-yl)-(4-thiazol-2-yl-pyrimidin-2-yl)-amine] | 1.5
– | 5450 | – | – | – | > 10000 | > 10000 | > 10000 | > 1000 | COc1ccc(Nc2nccc(-c3nc(C)c(C)s3)n2)cn1 [XVI, [4-(4,5-Dimethyl-thiazol-2-yl)-pyrimidin-2-yl]-(6-methoxy-pyridin-3-yl)-amine] | –
– | 2910 | – | – | – | > 10000 | > 10000 | > 10000 | > 10000 | Cc1nc(-c2ccnc(Nc3ccc(Cl)nc3)n2)sc1C [XVII, (6-Chloro-pyridin-3-yl)-[4-(4,5-dimethyl-thiazol-2-yl)-pyrimidin-2-yl]-amine] | –
< 50 | 470 | < 50 | < 50 | < 50 | – | – | – | – | Cc1sc(-c2ccnc(Nc3ccc(Cl)cc3)c2)nc1O [XXII, 2-[2-(4-Chloro-phenylamino)-pyridin-4-yl]-5-methyl-thiazol-4-ol] | 1.5 ± 0.4
< 50 | 482 | < 50 | < 50 | < 50 | – | – | – | – | c1cc(-c2nccs2)nc(Nc2ccc(N3CCCC3)nc2)n1 [XXIII, (6-Pyrrolidin-1-yl-pyridin-3-yl)-(4-thiazol-2-yl-pyrimidin-2-yl)-amine] | 1.35 ± 0.07
– | 19 | < 50 | < 50 | < 50 | 960 | – | – | – | CCOC(=O)c1sc(-c2ccnc(Nc3ccc(Cl)nc3)n2)nc1O [XXIV, 2-[2-(6-Chloro-pyridin-3-ylamino)-pyrimidin-4-yl]-4-hydroxy-thiazole-5-carboxylic acid ethylester] | 4.3 ± 0.32
– | 80 | < 50 | < 50 | < 50 | – | – | – | – | Cc1sc(-c2ccnc(Nc3ccc(Cl)nc3)n2)nc1O [XXV, 2-[2-(6-Chloro-pyridin-3-ylamino)-pyrimidin-4-yl]-5-methyl-thiazol-4-ol] | 2.1 ± 0.3
– | 164 | < 50 | < 50 | < 50 | 2080 | – | – | – | OCCc1sc(-c2ccnc(Nc3ccc(Cl)nc3)n2)nc1O [XXVI, 2-[2-(6-Chloro-pyridin-3-ylamino)-pyrimidin-4-yl]-5-(2-hydroxy-ethyl)-thiazol-4-ol] | 5.2 ± 3.2
– | 90 | – | – | < 50 | – | – | – | – | Cc1cc(Nc2nccc(-c3nccs3)n2)cnc1Cl [XXVII, (6-Chloro-5-methyl-pyridin-3-yl)-(4-thiazol-2-yl-pyrimidin-2-yl)-amine] | 1.5 ± 0.4
